Reference: patent publication US20250115569A1, “SULFONAMIDE COMPOUNDS FOR THE TREATMENT OF NEUROLOGICAL CONDITIONS” (LARIO THERAPEUTICS LIMITED, priority 2021, published 2025)

System: Human Cav2.3 channel
Assay: Human Cav2.3 channel calcium-influx assay
Type: cell-based
Conditions: Fluo8 fluorescence, HEK-293 T-Rex/Kir2.1/Cav2.3e cells, without pluronic acid
Procedure, shortened: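 Signal = peak fluorescence (5–130 s) minus baseline (1–2 s), normalized to neutral (0) and inhibitor (−100) controls as % effect. Depolarization used final 20 mM KCl, 130 mM NaCl, 2 mM CaCl2, after 3 min RT compound exposure (30 μM top, half-log, 8 points, 0.3% DMSO) in doxycycline-induced HEK-293 T-Rex/Kir2.1/Cav2.3e-β4-α2δ1 cells with Fluo8 NW.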

Row | Compound | Cav2.3 (pIC50)
1 | CCN([C@H](c1ccc(F)cc1)C(F)(F)F)S(=O)(=O)c1ccc2cnn(C)c2c1 [Example 160, (R)—N-ethyl-1-methyl-N-(2,2,2-trifluoro-1-(4-fluorophenyl)ethyl)-1H-indazole-6-sulfonamide] | 6.06
2 | CCN([C@H](c1ccc(F)c(C)c1)C(F)(F)F)S(=O)(=O)c1cncc(C#N)c1 [Example 246, (R)-5-cyano-N-ethyl-N-(2,2,2-trifluoro-1-(4-fluoro-3-methylphenyl)ethyl)pyridine-3-sulfonamide] | 7.31
3 | CCN(C(c1ccc(F)cc1)C(F)(F)F)S(=O)(=O)c1cc(C)c(Cl)s1 (stereo not shown) [Example 31, 5-chloro-N-ethyl-4-methyl-N-(2,2,2-trifluoro-1-(4-fluorophenyl)ethyl)thiophene-2-sulfonamide] | 6.43
4 | CCN([C@H](c1ccc(F)cc1)C(F)(F)F)S(=O)(=O)c1cncc(N2CCCC2)c1 [Example 98, (R)—N-ethyl-5-(pyrrolidin-1-yl)-N-(2,2,2-trifluoro-1-(4-fluorophenyl)ethyl)pyridine-3-sulfonamide] | 5.80
5 | CCN([C@@H](c1ccc(F)cc1)C(F)(F)F)S(=O)(=O)c1ccc(N2CCOCC2)s1 [Example 91, (S)—N-ethyl-5-morpholino-N-(2,2,2-trifluoro-1-(4-fluorophenyl)ethyl)thiophene-2-sulfonamide] | 5.37
6 | CN([C@H](c1ccc(C(F)(F)F)cc1)C(F)(F)F)S(=O)(=O)c1cnc2cccnn12 [Example 211, (R)—N-methyl-N-(2,2,2-trifluoro-1-(4-(trifluoromethyl)phenyl)ethyl)imidazo[1,2-b]pyridazine-3-sulfonamide] | 7.17
7 | COc1ccc(C(N(C)S(=O)(=O)C2CCOCC2)C(F)(F)F)cc1 (stereo not shown) [Example 125, N-methyl-N-(2,2,2-trifluoro-1-(4-methoxyphenyl)ethyl)tetrahydro-2H-pyran-4-sulfonamide] | 5.37
8 | CCN([C@@H](c1ccc(F)cc1)C(F)(F)F)S(=O)(=O)c1cncnc1 [Example 59, (S)—N-ethyl-N-(2,2,2-trifluoro-1-(4-fluorophenyl)ethyl)pyrimidine-5-sulfonamide] | 5.21
9 | CCN(C(c1ccc(F)cc1)C(F)(F)F)S(=O)(=O)c1ccn(C)c(=O)c1 (stereo not shown) [Example 103, N-ethyl-1-methyl-2-oxo-N-(2,2,2-trifluoro-1-(4-fluorophenyl)ethyl)-1,2-dihydropyridine-4-sulfonamide] | 6.50
10 | CCN([C@H](c1cccc(C)c1)C(F)(F)F)S(=O)(=O)c1cncc(C#N)c1 [Example 114, (R)-5-cyano-N-ethyl-N-(2,2,2-trifluoro-1-(m-tolyl)ethyl)pyridine-3-sulfonamide] | 6.87
11 | CCN([C@H](c1ccc(C)cc1)C(F)(F)F)S(=O)(=O)c1cncc(C#N)c1 [Example 106, (R)-5-Cyano-N-ethyl-N-(2,2,2-trifluoro-1-(p-tolyl)ethyl)pyridine-3-sulfonamide] | 7.51
12 | Cc1ccc(S(=O)(=O)N(C)[C@H](c2ccc(C(F)(F)F)cc2)C(F)(F)F)cn1 [Example 266, (R)—N,6-dimethyl-N-(2,2,2-trifluoro-1-(4-(trifluoromethyl)phenyl)ethyl)pyridine-3-sulfonamide] | 6.54
13 | CCN(C(c1ccc(F)cc1)C(F)(F)F)S(=O)(=O)c1cncnc1 [Example 60, (R)—N-ethyl-N-(2,2,2-trifluoro-1-(4-fluorophenyl)ethyl)pyrimidine-5-sulfonamide] | 7.14
14 | CCN([C@H](c1ccc(F)cc1)C(F)(F)F)S(=O)(=O)c1ccc2cn[nH]c2c1 [Example 159, (R)—N-ethyl-N-(2,2,2-trifluoro-1-(4-fluorophenyl)ethyl)-1H-indazole-6-sulfonamide] | 6.33
15 | CCN(C(c1ccc(F)cc1)C(F)(F)F)S(=O)(=O)c1cncc(N2CCOCC2)c1 (stereo not shown) [Example 93, N-ethyl-5-morpholino-N-(2,2,2-trifluoro-1-(4-fluorophenyl)ethyl)pyridine-3-sulfonamide] | 6.53
16 | CCN(C(c1cccc(F)c1)C(F)(F)F)S(=O)(=O)c1cncc(C#N)c1 (stereo not shown) [Example 110, 5-Cyano-N-ethyl-N-(2,2,2-trifluoro-1-(3-fluorophenyl)ethyl)pyridine-3-sulfonamide] | 7.11
17 | CN([C@H](c1ccc(Cl)cc1)C(F)(F)F)S(=O)(=O)c1cnc2cccnn12 [Example 210, (R)—N-(1-(4-chlorophenyl)-2,2,2-trifluoroethyl)-N-methylimidazo[1,2-b]pyridazine-3-sulfonamide] | 6.85
18 | CCN(C(c1ccc(F)cc1)C(F)(F)F)S(=O)(=O)c1ccn2ccnc2c1 (stereo not shown) [Example 135, N-ethyl-N-(2,2,2-trifluoro-1-(4-fluorophenyl)ethyl)imidazo[1,2-a]pyridine-7-sulfonamide] | 6.76
19 | CCN([C@H](c1ccc(Cl)cc1)C(F)(F)F)S(=O)(=O)c1cncnc1 [Example 134, (R)—N-(1-(4-chlorophenyl)-2,2,2-trifluoroethyl)-N-ethylpyrimidine-5-sulfonamide] | 7.65

Row | Compound | Cav2.3 (pIC50)
20 | CCN([C@@H](c1ccc(F)cc1)C(F)(F)F)S(=O)(=O)c1cncc(N2CCOCC2)c1 [Example 95, (S)—N-ethyl-5-morpholino-N-(2,2,2-trifluoro-1-(4-fluorophenyl)ethyl)pyridine-3-sulfonamide] | 5.62
21 | COc1ccc(S(=O)(=O)N(C)[C@H](c2ccc(Cl)cc2)C(F)(F)F)nn1 [Example 207, (R)—N-(1-(4-chlorophenyl)-2,2,2-trifluoroethyl)-6-methoxy-N-methylpyridazine-3-sulfonamide] | 6.02
22 | CCN([C@H](c1ccc(C(F)(F)F)cc1)C(F)(F)F)S(=O)(=O)c1ccn2ncnc2c1 [Example 216, (R)—N-ethyl-N-(2,2,2-trifluoro-1-(4-(trifluoromethyl)phenyl)ethyl)-[1,2,4]triazolo[1,5-a]pyridine-7-sulfonamide] | 7.29
23 | CCN([C@H](c1ccc(F)c(Cl)c1)C(F)(F)F)S(=O)(=O)c1cncc(C#N)c1 [Example 254, (R)—N-(1-(3-chloro-4-fluorophenyl)-2,2,2-trifluoroethyl)-5-cyano-N-ethylpyridine-3-sulfonamide] | 7.33
24 | CCN([C@H](c1ccc(F)cc1)C(F)(F)F)S(=O)(=O)c1ccc2c(c1)OC(F)(F)O2 [Example 162, (R)—N-ethyl-2,2-difluoro-N-(2,2,2-trifluoro-1-(4-fluorophenyl)ethyl)benzo[d][1,3]dioxole-5-sulfonamide] | 6.01
25 | CN([C@H](c1ccc(C(F)(F)F)cc1)C(F)(F)F)S(=O)(=O)c1cccnc1 [Example 267, (R)—N-methyl-N-(2,2,2-trifluoro-1-(4-(trifluoromethyl)phenyl)ethyl)pyridine-3-sulfonamide] | 7.09
26 | CN([C@H](c1ccc(F)cc1)C(F)(F)F)S(=O)(=O)c1ccc(C#N)s1 [Example 6, (R)-5-cyano-N-methyl-N-(2,2,2-trifluoro-1-(4-fluorophenyl)ethyl)thiophene-2-sulfonamide] | 6.22
27 | CCN([C@H](c1ccc(F)cc1)C(F)(F)F)S(=O)(=O)c1ccc(F)s1 [Example 16, (R)—N-ethyl-5-fluoro-N-(2,2,2-trifluoro-1-(4-fluorophenyl)ethyl)thiophene-2-sulfonamide] | 5.78
28 | CCN([C@@H](c1ccc(F)cc1)C(F)(F)F)S(=O)(=O)c1ccc2c(c1)COC2 [Example 37, (S)—N-ethyl-N-(2,2,2-trifluoro-1-(4-fluorophenyl)ethyl)-1,3-dihydroisobenzofuran-5-sulfonamide] | 4.87
29 | CCN(C(c1ccc(F)cc1)C(F)(F)F)S(=O)(=O)C1CCCOC1 (stereo not shown) [Example 56, N-ethyl-N-(2,2,2-trifluoro-1-(4-fluorophenyl)ethyl)tetrahydro-2H-pyran-3-sulfonamide] | 6.92
30 | CCN(C(c1ccc(F)cc1)C(F)(F)F)S(=O)(=O)c1cccc(C#N)n1 (stereo not shown) [Example 30, 6-cyano-N-ethyl-N-(2,2,2-trifluoro-1-(4-fluorophenyl)ethyl)pyridine-2-sulfonamide] | 6.62
31 | CN([C@H](c1ccc(C(F)(F)F)cc1)C(F)(F)F)S(=O)(=O)c1ccn2ccnc2c1 [Example 236, (R)—N-methyl-N-(2,2,2-trifluoro-1-(4-(trifluoromethyl)phenyl)ethyl)imidazo[1,2-a]pyridine-7-sulfonamide] | 7.33
32 | CCN(C(c1ccc(F)cc1)C(F)(F)F)S(=O)(=O)c1cncc(C#N)c1 (stereo not shown) [Example 26, 5-cyano-N-ethyl-N-(2,2,2-trifluoro-1-(4-fluorophenyl)ethyl)pyridine-3-sulfonamide] | 7.49
33 | CCN([C@H](c1ccc(F)cc1)C(F)(F)F)S(=O)(=O)c1ccc(N2CCOCC2)s1 [Example 90, (R)—N-ethyl-5-morpholino-N-(2,2,2-trifluoro-1-(4-fluorophenyl)ethyl)thiophene-2-sulfonamide] | 6.20
34 | CCN([C@@H](c1ccc(F)cc1)C(F)(F)F)S(=O)(=O)c1ccc2c(c1)OCC2 [Example 41, (S)—N-ethyl-N-(2,2,2-trifluoro-1-(4-fluorophenyl)ethyl)-2,3-dihydrobenzofuran-6-sulfonamide] | 4.72
35 | CCN([C@@H](c1ccccc1C(F)(F)F)C(F)(F)F)S(=O)(=O)c1cncc(C#N)c1 [Example 247, (S)-5-cyano-N-ethyl-N-(2,2,2-trifluoro-1-(2-(trifluoromethyl)phenyl)ethyl)pyridine-3-sulfonamide] | 5.11
36 | CCN(C(c1ccc(F)cc1)C(F)(F)F)S(=O)(=O)c1ccc(C#N)s1 (stereo not shown) [Example 3, 5-cyano-N-ethyl-N-(2,2,2-trifluoro-1-(4-fluorophenyl)ethyl)thiophene-2-sulfonamide] | 6.31
37 | CCN([C@H](c1ccccc1OC)C(F)(F)F)S(=O)(=O)c1cncc(C#N)c1 [Example 109, (R)-5-cyano-N-ethyl-N-(2,2,2-trifluoro-1-(2-methoxyphenyl)ethyl)pyridine-3-sulfonamide] | 4.59
